Reference: ChEMBL document CHEMBL5550120, “SuFEx-based chemical diversification for the systematic discovery of CRBN molecular glues” (Bioorg Med Chem, 2024)
The source made the active and inactive calls. No cut-off for these calls is given here.

Assays:
[1] = system: MOLT-4; assay: Antiproliferative activity against wild type human MOLT-4 cells assessed as reduction in cell viability measured after 3 days by ATP-dependent luminescence assay; type: functional, cell-based; conditions: MOLT-4, 72 h
[2] = system: MV4-11; assay: Antiproliferative activity against wild type human MV4-11 cells assessed as reduction in cell viability measured after 3 days by ATP-dependent luminescence assay; type: functional, cell-based; conditions: MV4-11, 72 h
[3] = system: BE(2)-C; assay: Antiproliferative activity against wild type human BE2C cells assessed as reduction in cell viability measured after 3 days by ATP-dependent luminescence assay; type: functional, cell-based; conditions: 72 h
[4] = target: T1, Protein cereblon/Eukaryotic peptide chain release factor GTP-binding subunit ERF3A (Homo sapiens, UniProt Q96SW2+P15170); assay: Molecular glue activity at CRBN/HiBiT-tagged GSPT1 in human MOLT-4 cells assessed as induction of GSPT1 degradation measured after 3 hrs by immunoblot analysis; type: cell-based
Target sequence in this assay (Q96SW2 whole entry): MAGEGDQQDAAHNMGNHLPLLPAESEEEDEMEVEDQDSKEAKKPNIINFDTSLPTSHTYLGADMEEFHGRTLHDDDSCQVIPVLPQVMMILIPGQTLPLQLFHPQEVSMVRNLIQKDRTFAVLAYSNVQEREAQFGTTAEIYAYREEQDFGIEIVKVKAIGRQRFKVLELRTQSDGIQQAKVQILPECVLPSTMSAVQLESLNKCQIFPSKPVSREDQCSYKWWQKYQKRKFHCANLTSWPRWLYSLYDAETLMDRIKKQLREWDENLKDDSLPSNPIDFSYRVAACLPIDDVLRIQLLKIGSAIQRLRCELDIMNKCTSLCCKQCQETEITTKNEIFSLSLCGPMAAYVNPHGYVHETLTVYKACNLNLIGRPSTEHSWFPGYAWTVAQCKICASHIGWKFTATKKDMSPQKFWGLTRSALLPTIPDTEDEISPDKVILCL
Target sequence in this assay (P15170 whole entry): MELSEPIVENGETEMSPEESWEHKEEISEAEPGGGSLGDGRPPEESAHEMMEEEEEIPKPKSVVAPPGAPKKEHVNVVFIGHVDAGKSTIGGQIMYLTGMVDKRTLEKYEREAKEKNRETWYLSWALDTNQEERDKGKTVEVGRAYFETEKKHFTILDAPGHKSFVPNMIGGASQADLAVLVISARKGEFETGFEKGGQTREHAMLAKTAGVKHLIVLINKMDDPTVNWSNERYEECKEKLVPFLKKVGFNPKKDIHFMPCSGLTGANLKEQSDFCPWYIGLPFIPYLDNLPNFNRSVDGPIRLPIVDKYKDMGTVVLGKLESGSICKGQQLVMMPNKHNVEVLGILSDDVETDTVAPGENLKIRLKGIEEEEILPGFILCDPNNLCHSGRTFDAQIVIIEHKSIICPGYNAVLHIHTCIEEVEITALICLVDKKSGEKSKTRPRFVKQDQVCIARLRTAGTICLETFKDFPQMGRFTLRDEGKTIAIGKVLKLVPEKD

[5] = target: T1, Protein cereblon/Eukaryotic peptide chain release factor GTP-binding subunit ERF3A; assay: Molecular glue activity at CRBN/HiBiT-tagged GSPT1 in wild type human MV4-11 cells assessed as induction of GSPT1 degradation measured after 3 hrs by immunoblot analysis; type: cell-based
Target sequence in this assay (Q96SW2 whole entry): as the sequence (Q96SW2 whole entry) above
Target sequence in this assay (P15170 whole entry): as the sequence (P15170 whole entry) above

[6] = target: T1, Protein cereblon/Eukaryotic peptide chain release factor GTP-binding subunit ERF3A; assay: Molecular glue activity at CRBN/HiBiT-tagged GSPT1 in wild type human BE2C cells assessed as induction of GSPT1 degradation measured after 3 hrs by immunoblot analysis; type: cell-based
Target sequence in this assay (Q96SW2 whole entry): as the sequence (Q96SW2 whole entry) above
Target sequence in this assay (P15170 whole entry): as the sequence (P15170 whole entry) above

[7] = Selectivity index, ratio of EC50 for antiproliferative activity against human BE2C cells to EC50 for antiproliferative activity against human MOLT-4 cells; type: functional
[8] = Selectivity index, ratio of EC50 for antiproliferative activity against human BE2C cells to EC50 for antiproliferative activity against human MV4-11 cells; type: functional
[9] = system: MOLT-4; assay: Antiproliferative activity against CRBN depleted human MOLT-4 cells assessed as reduction in cell viability measured after 3 days by ATP-dependent luminescence assay; type: functional, cell-based; conditions: time 3.0 day
[10] = system: MOLT-4; assay: Antiproliferative activity against human MOLT-4 cells harboring GSPT1 G575N mutant assessed as reduction in cell viability measured after 3 days by ATP-dependent luminescence assay; type: functional, cell-based; conditions: time 3.0 day
[11] = system: MV4-11; assay: Antiproliferative activity against CRBN depleted human MV4-11 cells assessed as reduction in cell viability measured after 3 days by ATP-dependent luminescence assay; type: functional, cell-based; conditions: time 3.0 day
[12] = system: MV4-11; assay: Antiproliferative activity against human MV4-11 cells harboring GSPT1 G575N mutant assessed as reduction in cell viability measured after 3 days by ATP-dependent luminescence assay; type: functional, cell-based; conditions: time 3.0 day
[13] = system: BE(2)-C; assay: Antiproliferative activity against CRBN depleted human BE2C cells assessed as reduction in cell viability measured after 3 days by ATP-dependent luminescence assay; type: functional, cell-based; conditions: time 3.0 day
[14] = system: BE(2)-C; assay: Antiproliferative activity against human BE2C cells harboring GSPT1 G575N mutant assessed as reduction in cell viability measured after 3 days by ATP-dependent luminescence assay; type: functional, cell-based; conditions: time 3.0 day
[15] = target: T1, Protein cereblon/Eukaryotic peptide chain release factor GTP-binding subunit ERF3A; assay: Molecular glue activity at CRBN/GSPT1 in CRBN depleted human MOLT-4 cells assessed as induction of GSPT1 degradation at 3 uM measured after 3 hrs by immunoblot analysis; type: cell-based
Target sequence in this assay (P15170 whole entry, looked up): as the sequence (P15170 whole entry) above
Target sequence in this assay (Q96SW2 whole entry, looked up): as the sequence (Q96SW2 whole entry) above

[16] = target: T1, Protein cereblon/Eukaryotic peptide chain release factor GTP-binding subunit ERF3A; assay: Molecular glue activity at CRBN/GSPT1 in human MOLT-4 cells harboring GSPT1 G575N mutant assessed as induction of GSPT1 degradation at 3 uM measured after 3 hrs by immunoblot analysis; type: cell-based
Target sequence in this assay (P15170 whole entry, looked up): as the sequence (P15170 whole entry) above
Target sequence in this assay (Q96SW2 whole entry, looked up): as the sequence (Q96SW2 whole entry) above

[17] = target: T1, Protein cereblon/Eukaryotic peptide chain release factor GTP-binding subunit ERF3A; assay: Molecular glue activity at CRBN/GSPT1 in CRBN depleted human MV4-11 cells assessed as induction of GSPT1 degradation at 3 uM measured after 3 hrs by immunoblot analysis; type: cell-based
Target sequence in this assay (P15170 whole entry, looked up): as the sequence (P15170 whole entry) above
Target sequence in this assay (Q96SW2 whole entry, looked up): as the sequence (Q96SW2 whole entry) above

[18] = target: T1, Protein cereblon/Eukaryotic peptide chain release factor GTP-binding subunit ERF3A; assay: Molecular glue activity at CRBN/GSPT1 in human MV4-11 cells harboring GSPT1 G575N mutant assessed as induction of GSPT1 degradation at 3 uM measured after 3 hrs by immunoblot analysis; type: cell-based
Target sequence in this assay (P15170 whole entry, looked up): as the sequence (P15170 whole entry) above
Target sequence in this assay (Q96SW2 whole entry, looked up): as the sequence (Q96SW2 whole entry) above

[19] = target: T1, Protein cereblon/Eukaryotic peptide chain release factor GTP-binding subunit ERF3A; assay: Molecular glue activity at CRBN/GSPT1 in CRBN depleted human BE2C cells assessed as induction of GSPT1 degradation at 3 uM measured after 3 hrs by immunoblot analysis; type: cell-based
Target sequence in this assay (P15170 whole entry, looked up): as the sequence (P15170 whole entry) above
Target sequence in this assay (Q96SW2 whole entry, looked up): as the sequence (Q96SW2 whole entry) above

[20] = target: T1, Protein cereblon/Eukaryotic peptide chain release factor GTP-binding subunit ERF3A; assay: Molecular glue activity at CRBN/GSPT1 in human BE2C cells harboring GSPT1 G575N mutant assessed as induction of GSPT1 degradation at 3 uM measured after 3 hrs by immunoblot analysis; type: cell-based
Target sequence in this assay (P15170 whole entry, looked up): as the sequence (P15170 whole entry) above
Target sequence in this assay (Q96SW2 whole entry, looked up): as the sequence (Q96SW2 whole entry) above

[21] = target: T1, Protein cereblon/Eukaryotic peptide chain release factor GTP-binding subunit ERF3A; assay: Molecular glue activity at CRBN/HiBiT-tagged GSPT1 in human MOLT-4 cells assessed as induction of GSPT1 degradation at 3 uM pretreated with pomalidomide at 25 uM for 1 hr followed by compound treatment and measured after 3 hrs by immunoblot analysis; type: cell-based
[22] = target: T1, Protein cereblon/Eukaryotic peptide chain release factor GTP-binding subunit ERF3A; assay: Molecular glue activity at CRBN/HiBiT-tagged GSPT1 in human MV4-11 cells assessed as induction of GSPT1 degradation at 3 uM pretreated with pomalidomide at 25 uM for 1 hr followed by compound treatment and measured after 3 hrs by immunoblot analysis; type: cell-based
[23] = target: T1, Protein cereblon/Eukaryotic peptide chain release factor GTP-binding subunit ERF3A; assay: Molecular glue activity at CRBN/HiBiT-tagged GSPT1 in human BE2C cells assessed as induction of GSPT1 degradation at 3 uM pretreated with pomalidomide at 25 uM for 1 hr followed by compound treatment and measured after 3 hrs by immunoblot analysis; type: cell-based
[24] = target: T1, Protein cereblon/Eukaryotic peptide chain release factor GTP-binding subunit ERF3A; assay: Molecular glue activity at CRBN/HiBiT-tagged GSPT1 in human MOLT-4 cells assessed as induction of GSPT1 degradation at 3 uM pretreated with MLN4924 at 1 uM for 1 hr followed by compound treatment and measured after 3 hrs by immunoblot analysis; type: cell-based
[25] = target: T1, Protein cereblon/Eukaryotic peptide chain release factor GTP-binding subunit ERF3A; assay: Molecular glue activity at CRBN/HiBiT-tagged GSPT1 in human MV4-11 cells assessed as induction of GSPT1 degradation at 3 uM pretreated with MLN4924 at 1 uM for 1 hr followed by compound treatment and measured after 3 hrs by immunoblot analysis; type: cell-based
[26] = target: T1, Protein cereblon/Eukaryotic peptide chain release factor GTP-binding subunit ERF3A; assay: Molecular glue activity at CRBN/HiBiT-tagged GSPT1 in human BE2C cells assessed as induction of GSPT1 degradation at 3 uM pretreated with MLN4924 at 1 uM for 1 hr followed by compound treatment and measured after 3 hrs by immunoblot analysis; type: cell-based
[27] = target: T1, Protein cereblon/Eukaryotic peptide chain release factor GTP-binding subunit ERF3A; assay: Molecular glue activity at CRBN/HiBiT-tagged GSPT1 in human MOLT-4 cells assessed as induction of GSPT1 degradation at 3 uM pretreated with carfilzomib at 500 nM for 1 hr followed by compound treatment and measured after 3 hrs by immunoblot analysis; type: cell-based
[28] = target: T1, Protein cereblon/Eukaryotic peptide chain release factor GTP-binding subunit ERF3A; assay: Molecular glue activity at CRBN/HiBiT-tagged GSPT1 in human MV4-11 cells assessed as induction of GSPT1 degradation at 3 uM pretreated with carfilzomib at 500 nM for 1 hr followed by compound treatment and measured after 3 hrs by immunoblot analysis; type: cell-based
[29] = target: T1, Protein cereblon/Eukaryotic peptide chain release factor GTP-binding subunit ERF3A; assay: Molecular glue activity at CRBN/HiBiT-tagged GSPT1 in human BE2C cells assessed as induction of GSPT1 degradation at 3 uM pretreated with carfilzomib at 500 nM for 1 hr followed by compound treatment and measured after 3 hrs by immunoblot analysis; type: cell-based
[30] = system: MV4-11; assay: Downregulation of GSPT1 protein abundance in human MV4-11 cells at 3 uM measured after 3 hrs by proteomics analysis; type: functional, cell-based
[31] = system: MV4-11; assay: Downregulation of GSPT2 protein abundance in human MV4-11 cells at 3 uM measured after 3 hrs by proteomics analysis; type: functional, cell-based
[32] = target: DNA-binding protein Ikaros (Homo sapiens) (UniProt Q13422); assay: Induction of IKZF1 degradation in human MV4-11 cells at 3 uM measured after 3 hrs by proteomics analysis; type: cell-based
DNA-binding protein Ikaros (Homo sapiens), sequence (Q13422 whole entry): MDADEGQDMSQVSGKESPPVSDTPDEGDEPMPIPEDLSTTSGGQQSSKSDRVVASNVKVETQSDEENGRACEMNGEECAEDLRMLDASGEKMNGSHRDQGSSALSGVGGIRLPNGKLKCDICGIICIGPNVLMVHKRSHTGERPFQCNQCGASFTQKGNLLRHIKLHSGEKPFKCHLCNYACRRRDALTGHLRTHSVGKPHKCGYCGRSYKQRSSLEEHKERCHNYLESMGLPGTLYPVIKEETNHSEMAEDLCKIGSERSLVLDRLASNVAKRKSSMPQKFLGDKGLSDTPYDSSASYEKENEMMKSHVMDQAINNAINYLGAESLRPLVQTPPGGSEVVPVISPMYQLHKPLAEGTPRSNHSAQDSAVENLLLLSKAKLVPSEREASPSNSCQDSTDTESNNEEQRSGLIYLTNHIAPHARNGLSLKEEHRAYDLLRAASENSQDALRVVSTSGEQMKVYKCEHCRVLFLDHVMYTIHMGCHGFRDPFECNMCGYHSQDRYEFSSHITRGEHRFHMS

[33] = target: DNA-binding protein Ikaros (Homo sapiens) (UniProt Q13422); assay: Induction of cHiBiT-tagged IKZF1 degradation in human MV4-11 cells; type: cell-based
[34] = target: DNA-binding protein Ikaros (Homo sapiens) (UniProt Q13422); assay: Induction of IKZF1 degradation in human MV4-11 cells at 3 uM measured after 3 hrs by immunoblot analysis; type: cell-based

SMILES	EC50 [1]	EC50 [2]	EC50 [3]	DC50 [4]	DC50 [5]	DC50 [6]	Ratio EC50 [7]	Ratio EC50 [8]	Activity [9]	Activity [10]	Activity [11]	Activity [12]	Activity [13]	Activity [14]	Activity [15]	Activity [16]	Activity [17]	Activity [18]	Activity [19]	Activity [20]	further results
CCC(C)(CCNS(=O)(=O)Nc1ccc2c(c1)CN(C1CCC(=O)NC1=O)C2=O)c1ccccc1OC (configuration not stated)	420 nM	410 nM	42000 nM	700 nM	700 nM	19000 nM	~100	~100	inactive	inactive	inactive	inactive	inactive	inactive	inactive	inactive	inactive	inactive	inactive	inactive	Activity [21]: inactive; Activity [22]: inactive; Activity [23]: inactive; Activity [24]: inactive; Activity [25]: inactive; Activity [26]: inactive; Activity [27]: inactive; Activity [28]: inactive; Activity [29]: inactive; Activity [30]: Active; Activity [31]: Active
Cc1ccc(NC(=O)NCc2ccc3c(c2)CN(C2CCC(=O)NC2=O)C3=O)cc1Cl (configuration not stated)	< 1 nM	< 1 nM	< 5 nM	< 1 nM	< 1 nM	< 1 nM															
CCCOc1ccccc1CNS(=O)(=O)Nc1ccc2c(c1)CN(C1CCC(=O)NC1=O)C2=O (configuration not stated)	110 nM	80 nM	18000 nM	90 nM	60 nM	7000 nM	~100	~100	inactive	inactive	inactive	inactive	inactive	inactive	inactive	inactive	inactive	inactive	inactive	inactive	Activity [32]: inactive; Activity [21]: inactive; Activity [22]: inactive; Activity [23]: inactive; Activity [24]: inactive; Activity [25]: inactive; Activity [26]: inactive; Activity [27]: inactive; Activity [28]: inactive; Activity [29]: inactive; Activity [30]: Active; Activity [31]: Active; Activity [33]: inactive; Activity [34]: inactive
CC(C)CCOc1ccccc1OCCNS(=O)(=O)Nc1ccc2c(c1)CN(C1CCC(=O)NC1=O)C2=O (configuration not stated)	60 nM	40 nM	13000 nM	90 nM	120 nM	14000 nM	~100	~100	inactive	inactive	inactive	inactive	inactive	inactive	inactive	inactive	inactive	inactive	inactive	inactive	Activity [21]: inactive; Activity [22]: inactive; Activity [23]: inactive; Activity [24]: inactive; Activity [25]: inactive; Activity [26]: inactive; Activity [27]: inactive; Activity [28]: inactive; Activity [29]: inactive; Activity [30]: Active; Activity [31]: Active
